Experiment: radiation dosimetry estimates for human patients
Details: adult male

## OCC1OC(SC2OC(CO)C(O)C(n3cc(-c4cccc([18F])c4)nn3)C2O)C(O)C(n2cc(-c3cccc(F)c3)nn2)C1O [[^18F]FPTDG, 3-(3-[^18F]fluorophenyltriazolyl)-3-deoxy-3′-(3-fluorophenyltriazolyl)-3′-deoxy-1-thio-β-D-digalactopyranoside]
  Effective Dose: Effective Dose 6.74 mSv per 370 MBq dose or 10 mCi
  Effective Dose Equivalent: Effective Dose Equivalent 6.12 mSv per 370 MBq dose or 10 mCi
Total Body
  Estimated organ dose, Alpha: 0 mSv per 370 MBq dose or 10 mCi
  Estimated organ dose, Beta: 1.79 mSv per 370 MBq dose or 10 mCi
  Estimated organ dose, ED Cont.: 0.00 mSv per 370 MBq dose or 10 mCi
  Estimated organ dose, EDE Cont.: 0.00 mSv per 370 MBq dose or 10 mCi
  Estimated organ dose, Photon: 2.67 mSv per 370 MBq dose or 10 mCi
  Estimated organ dose, Total: 4.46 mSv per 370 MBq dose or 10 mCi
Target organ Adrenals
  Estimated organ dose, Alpha: 0 mSv per 370 MBq dose or 10 mCi
  Estimated organ dose, Beta: 1.70 mSv per 370 MBq dose or 10 mCi
  Estimated organ dose, ED Cont.: 0.03 mSv per 370 MBq dose or 10 mCi
  Estimated organ dose, EDE Cont.: 0.00 mSv per 370 MBq dose or 10 mCi
  Estimated organ dose, Photon: 3.33 mSv per 370 MBq dose or 10 mCi
  Estimated organ dose, Total: 5.03 mSv per 370 MBq dose or 10 mCi
Target organ Brain
  Estimated organ dose, Alpha: 0 mSv per 370 MBq dose or 10 mCi
  Estimated organ dose, Beta: 1.70 mSv per 370 MBq dose or 10 mCi
  Estimated organ dose, ED Cont.: 0.02 mSv per 370 MBq dose or 10 mCi
  Estimated organ dose, EDE Cont.: 0.00 mSv per 370 MBq dose or 10 mCi
  Estimated organ dose, Photon: 2.22 mSv per 370 MBq dose or 10 mCi
  Estimated organ dose, Total: 3.92 mSv per 370 MBq dose or 10 mCi
Target organ Breasts
  Estimated organ dose, Alpha: 0 mSv per 370 MBq dose or 10 mCi
  Estimated organ dose, Beta: 1.70 mSv per 370 MBq dose or 10 mCi
  Estimated organ dose, ED Cont.: 0.18 mSv per 370 MBq dose or 10 mCi
  Estimated organ dose, EDE Cont.: 0.54 mSv per 370 MBq dose or 10 mCi
  Estimated organ dose, Photon: 1.87 mSv per 370 MBq dose or 10 mCi
  Estimated organ dose, Total: 3.57 mSv per 370 MBq dose or 10 mCi
Target organ Gallbladder Wall
  Estimated organ dose, Alpha: 0 mSv per 370 MBq dose or 10 mCi
  Estimated organ dose, Beta: 1.70 mSv per 370 MBq dose or 10 mCi
  Estimated organ dose, ED Cont.: 0.00 mSv per 370 MBq dose or 10 mCi
  Estimated organ dose, EDE Cont.: 0.00 mSv per 370 MBq dose or 10 mCi
  Estimated organ dose, Photon: 3.7 mSv per 370 MBq dose or 10 mCi
  Estimated organ dose, Total: 5.40 mSv per 370 MBq dose or 10 mCi
Target organ Heart Wall
  Estimated organ dose, Alpha: 0 mSv per 370 MBq dose or 10 mCi
  Estimated organ dose, Beta: 1.72 mSv per 370 MBq dose or 10 mCi
  Estimated organ dose, ED Cont.: 0.00 mSv per 370 MBq dose or 10 mCi
  Estimated organ dose, EDE Cont.: 0.00 mSv per 370 MBq dose or 10 mCi
  Estimated organ dose, Photon: 2.76 mSv per 370 MBq dose or 10 mCi
  Estimated organ dose, Total: 4.48 mSv per 370 MBq dose or 10 mCi
Target organ Kidneys
  Estimated organ dose, Alpha: 0 mSv per 370 MBq dose or 10 mCi
  Estimated organ dose, Beta: 1.70 mSv per 370 MBq dose or 10 mCi
  Estimated organ dose, ED Cont.: 0.02 mSv per 370 MBq dose or 10 mCi
  Estimated organ dose, EDE Cont.: 0.00 mSv per 370 MBq dose or 10 mCi
  Estimated organ dose, Photon: 3.24 mSv per 370 MBq dose or 10 mCi
  Estimated organ dose, Total: 4.94 mSv per 370 MBq dose or 10 mCi
Target organ LLI Wall
  Estimated organ dose, Alpha: 0 mSv per 370 MBq dose or 10 mCi
  Estimated organ dose, Beta: 9.25 mSv per 370 MBq dose or 10 mCi
  Estimated organ dose, ED Cont.: 1.72 mSv per 370 MBq dose or 10 mCi
  Estimated organ dose, EDE Cont.: 0.86 mSv per 370 MBq dose or 10 mCi
  Estimated organ dose, Photon: 5.06 mSv per 370 MBq dose or 10 mCi
  Estimated organ dose, Total: 14.30 mSv per 370 MBq dose or 10 mCi
Target organ Liver
  Estimated organ dose, Alpha: 0 mSv per 370 MBq dose or 10 mCi
  Estimated organ dose, Beta: 1.30 mSv per 370 MBq dose or 10 mCi
  Estimated organ dose, ED Cont.: 0.20 mSv per 370 MBq dose or 10 mCi
  Estimated organ dose, EDE Cont.: 0.00 mSv per 370 MBq dose or 10 mCi
  Estimated organ dose, Photon: 2.79 mSv per 370 MBq dose or 10 mCi
  Estimated organ dose, Total: 4.08 mSv per 370 MBq dose or 10 mCi
Target organ Lungs
  Estimated organ dose, Alpha: 0 mSv per 370 MBq dose or 10 mCi
  Estimated organ dose, Beta: 0.03 mSv per 370 MBq dose or 10 mCi
  Estimated organ dose, ED Cont.: 0.28 mSv per 370 MBq dose or 10 mCi
  Estimated organ dose, EDE Cont.: 0.28 mSv per 370 MBq dose or 10 mCi
  Estimated organ dose, Photon: 2.26 mSv per 370 MBq dose or 10 mCi
  Estimated organ dose, Total: 2.29 mSv per 370 MBq dose or 10 mCi
Target organ Muscle
  Estimated organ dose, Alpha: 0 mSv per 370 MBq dose or 10 mCi
  Estimated organ dose, Beta: 1.70 mSv per 370 MBq dose or 10 mCi
  Estimated organ dose, ED Cont.: 0.02 mSv per 370 MBq dose or 10 mCi
  Estimated organ dose, EDE Cont.: 0.00 mSv per 370 MBq dose or 10 mCi
  Estimated organ dose, Photon: 2.68 mSv per 370 MBq dose or 10 mCi
  Estimated organ dose, Total: 4.38 mSv per 370 MBq dose or 10 mCi
Target organ Osteogenic Cells
  Estimated organ dose, Alpha: 0 mSv per 370 MBq dose or 10 mCi
  Estimated organ dose, Beta: 3.64 mSv per 370 MBq dose or 10 mCi
  Estimated organ dose, ED Cont.: 0.07 mSv per 370 MBq dose or 10 mCi
  Estimated organ dose, EDE Cont.: 0.21 mSv per 370 MBq dose or 10 mCi
  Estimated organ dose, Photon: 3.17 mSv per 370 MBq dose or 10 mCi
  Estimated organ dose, Total: 6.82 mSv per 370 MBq dose or 10 mCi
Target organ Ovaries
  Estimated organ dose, Alpha: 0 mSv per 370 MBq dose or 10 mCi
  Estimated organ dose, Beta: 1.70 mSv per 370 MBq dose or 10 mCi
